Structures can show the parent of a compound that is named as a salt. Numbered stars: 1 amine (or outer) side, 2 acyl side, 3 side chain; on linkers, the order of the positions; unused ones are H or OH. Square brackets hold non-standard residues; d marks the D form. Peptide text beside a SMILES is read from it. * marks the point of attachment. X3 = Cc1c(C)c(C)c(C[C@@H](N[*:1])C(=O)[*:2])c(C)c1C; X2 = O=C([C@@H](Cc1c2ccccc2cc2ccccc12)N[*:1])[*:2]; dDip = N[C@@H](C(=O)O)C(c1ccccc1)c1ccccc1; d1Nal = N[C@H](Cc1cccc2ccccc12)C(=O)O; Piv = CC(C)(C)C(=O)*; Tfa = O=C(C(F)(F)F)*
Columns and labels:
ETA = target: T1, ETA (Oryctolagus cuniculus, UniProt A5A8K3); experiment: Endothelin Receptor Binding Assay-A (ETA), intact cell binding of [125I]-ET-1; parameters: species or system rabbit; conditions: Table IIa; for IC50: rabbit renal artery vascular smooth muscle cells, read-out: Binding Assay IC50 at Receptor Subtypes ETA
T1 construct: The cells used were rabbit renal artery vascular smooth muscle cells; endogenous in cells; host or cells: rabbit renal artery vascular smooth muscle cells
T1 sequence (A5A8K3 21-427): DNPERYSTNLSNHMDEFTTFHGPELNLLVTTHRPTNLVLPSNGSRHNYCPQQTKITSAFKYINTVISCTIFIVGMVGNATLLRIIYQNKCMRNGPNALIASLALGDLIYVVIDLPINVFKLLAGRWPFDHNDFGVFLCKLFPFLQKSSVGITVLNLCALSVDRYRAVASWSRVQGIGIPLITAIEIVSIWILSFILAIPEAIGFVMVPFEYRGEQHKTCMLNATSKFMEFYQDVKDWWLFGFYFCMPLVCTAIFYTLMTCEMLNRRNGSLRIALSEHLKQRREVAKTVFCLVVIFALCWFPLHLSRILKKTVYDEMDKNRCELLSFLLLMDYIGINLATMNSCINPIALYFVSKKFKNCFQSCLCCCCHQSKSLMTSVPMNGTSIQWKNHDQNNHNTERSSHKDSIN
Experimental: The cells used were rabbit renal artery vascular smooth muscle cells grown in a 48-well dish (1 cm^2) (confluent cells).
The growth media was Dulbeccos Modified Eagles/Ham's F12 which contained 10 fetal bovine serum and antibiotics (penicillin/streptomycin/fungizone).
Second, remove the assay buffers, place the dish on ice, and add 150 μL of cold assay buffer described above to each well. […] Next, place dish in a 37° C. water bath for about 2 hours and gently agitate the dish every 15 minutes. Discard the radioactive incubation mixture in the sink and wash wells 3 times with 1 mL of cold phosphate buffered saline. Last, add […] of 0.25M sodium hydroxide, agitate for 1 hour on rotator, and then transfer the sodium hydroxide extract to gamma counting tubes and count the radioactivity.

ETB = target: T2, ETB (Rattus norvegicus, UniProt P21451); experiment: Endothelin Receptor Binding Assay-B (ETB), [125I]-ET-1 binding in rat cerebellar membranes; conditions: Table IIa; for IC50: rat cerebellar membranes, read-out: Binding Assay IC50 at Receptor Subtypes ETB
T2 construct: thaw one aliquot of frozen rat cerebellar membranes; from tissue; host or cells: rat cerebellar membranes
T2 sequence (P21451 27-442): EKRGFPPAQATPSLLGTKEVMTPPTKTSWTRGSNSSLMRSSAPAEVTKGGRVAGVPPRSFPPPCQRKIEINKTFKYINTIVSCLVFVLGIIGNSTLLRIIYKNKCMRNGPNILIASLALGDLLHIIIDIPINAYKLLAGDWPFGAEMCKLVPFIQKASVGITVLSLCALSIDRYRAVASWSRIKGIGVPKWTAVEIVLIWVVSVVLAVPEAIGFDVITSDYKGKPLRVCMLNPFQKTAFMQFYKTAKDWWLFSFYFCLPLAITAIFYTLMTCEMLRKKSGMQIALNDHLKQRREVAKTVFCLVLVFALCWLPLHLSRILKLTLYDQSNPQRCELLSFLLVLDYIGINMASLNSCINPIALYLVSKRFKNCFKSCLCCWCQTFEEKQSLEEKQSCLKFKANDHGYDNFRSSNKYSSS
Experimental: The tissue is made up of 20 mM tris(hydroxymethyl)aminomethane hydrochloride (Trizma) buffer, 2 mM ethylenediaminetetraacetate, 100 μM phenylmethylsulfonyl fluoride.
First, thaw one aliquot of frozen rat cerebellar membranes (2 mg protein in 0.5 mL). Next, add 0.5 mL membrane aliquot to 4.5 mL cold tissue buffer, polytron at 7,500 revolutions per minute for 10 seconds. Finally, dilute tissue suspension 1/100 (0.1 mL suspension+9.9 mL tissue buffer), polytron again, and place ice.
Mix in 150 μL of tissue to each tube, vortex briefly, then tap to force all liquids to bottom (total assay volume=250 μL). Then place the tubes in a 37° C. water bath for 2 hours.
Add 2.5 mL cold water buffer (50 mM Trizma buffer) to each tube, filter, and then wash tube with additional 2.5 mL wash buffer and add to filter. Finally, wash filters with an additional 2.5 mL of cold wash buffer.
Count filters for radioactivity in gamma counter.

Compound	IC50 (ETA) [nM]	IC50 (ETB) [nM]	inhibition at 10 µM (ETA; @ 10 μM, read-out: Binding Assay % Inhibition at Receptor Subtypes ETA) [%]	inhibition at 10 µM (ETB; @ 10 μM, read-out: Binding Assay % Inhibition at Receptor Subtypes ETB) [%]
CC[C@H](C)[C@H](NC(=O)[C@H](CC(=O)O)NC(=O)[C@H](CC(C)C)NC(=O)[C@H](NC(=O)C(C)(C)C)C(c1ccccc1)c1ccccc1)C(=O)N[C@H](C(=O)N[C@@H](Cc1c[nH]c2ccccc12)C(=O)O)[C@@H](C)CC [Example 38, tBu--D--Dip--Leu--Asp--Ile--Ile--Trp] (Piv-[dDip]LDIIW-OH)	10000	500	–	–
CC[C@H](C)[C@H](NC(=O)[C@H](CC(=O)O)NC(=O)[C@H](CC(C)C)NC(=O)[C@H](NC(=O)C(F)(F)F)C(c1ccccc1)c1ccccc1)C(=O)N[C@H](C(=O)N[C@@H](Cc1c[nH]c2ccccc12)C(=O)O)[C@@H](C)CC [Example 39, CF3 CO--D--Dip--Leu--Asp--Ile--Ile--Trp] (Tfa-[dDip]LDIIW-OH)	250	900	–	–
CC[C@H](C)[C@H](NC(=O)[C@H](CC(=O)O)NC(=O)[C@H](CC(C)C)NC(=O)[C@@H](Cc1cccc2ccccc12)NC(C)=O)C(=O)N[C@H](C(=O)N[C@@H](Cc1c[nH]c2ccccc12)C(=O)O)[C@@H](C)CC [Example 45, Ac-1-D--Nal--Leu--Asp--Ile--Ile--Trp] (Ac-[d1Nal]LDIIW-OH)	300	450	–	–
CC[C@H](C)[C@H](NC(=O)[C@H](CC(=O)O)NC(=O)[C@H](CC(C)C)NC(=O)[C@H](N)Cc1c(C)c(C)c(C)c(C)c1C)C(=O)N[C@H](C(=O)N[C@@H](Cc1c[nH]c2ccccc12)C(=O)O)[C@@H](C)CC [Example 52, D--Pmp--Leu--Asp--Ile--Ile--Trp] (H-[X3]LDIIW-OH)	6000	3870	–	–
CC[C@H](C)[C@H](NC(=O)[C@H](CC(=O)O)NC(=O)[C@H](CC(C)C)NC(=O)[C@@H](Cc1c(C)c(C)c(C)c(C)c1C)NC(C)=O)C(=O)N[C@H](C(=O)N[C@@H](Cc1c[nH]c2ccccc12)C(=O)O)[C@@H](C)CC [Example 53, Ac--D--Pmp--Leu--Asp--Ile--Ile--Trp] (Ac-[X3]LDIIW-OH)	1500	5500	–	–
CC[C@H](C)[C@H](NC(=O)[C@H](CC(=O)O)NC(=O)[C@H](CC(C)C)NC(=O)[C@H](N)Cc1c2ccccc2cc2ccccc12)C(=O)N[C@H](C(=O)N[C@@H](Cc1c[nH]c2ccccc12)C(=O)O)[C@@H](C)CC [Example 54, D--Ana--Leu--Asp--Ile--Ile--Trp] (H-[X2]LDIIW-OH)	5860	1210	–	–
CC[C@H](C)[C@H](NC(=O)[C@H](CC(=O)O)NC(=O)[C@H](C)NC(=O)[C@@H](Cc1ccccc1)NC(C)=O)C(=O)N[C@H](C(=O)N[C@@H](Cc1c[nH]c2ccccc12)C(=O)O)[C@@H](C)CC [Example 59, Ac--D--Phe--Ala--Asp--Ile--Ile--Trp] (Ac-[dF]ADIIW-OH)	400	300	–	–
CC[C@H](C)[C@H](NC(=O)[C@H](CCCCN)NC(=O)[C@H](CC(C)C)NC(=O)[C@H](NC(C)=O)C(c1ccccc1)c1ccccc1)C(=O)N[C@H](C(=O)N[C@@H](Cc1c[nH]c2ccccc12)C(=O)O)[C@@H](C)CC [Example 69, Ac--D--Dip--Leu--Lys--Ile--Ile--Trp] (Ac-[dDip]LKIIW-OH)	480	33	–	–
CC[C@H](C)[C@H](NC(=O)[C@H](CC(N)=O)NC(=O)[C@H](CC(C)C)NC(=O)[C@H](N)C(c1ccccc1)c1ccccc1)C(=O)N[C@H](C(=O)N[C@@H](Cc1c[nH]c2ccccc12)C(=O)O)[C@@H](C)CC [Example 70, D--Dip--Leu--Asn--Ile--Ile--Trp] (H-[dDip]LNIIW-OH)	6430	833	–	–
CC[C@H](C)[C@H](NC(=O)[C@H](C)NC(=O)[C@H](CC(=O)O)NC(=O)[C@H](CC(C)C)NC(=O)[C@@H](Cc1ccccc1)NC(C)=O)C(=O)N[C@@H](Cc1c[nH]c2ccccc12)C(=O)O [Example 73, Ac--D--Phe--Leu--Asp--Ala--Ile--Trp] (Ac-[dF]LDAIW-OH)	3500	330	–	–
CC[C@H](C)[C@H](NC(=O)[C@@H](NC(=O)[C@H](CC(=O)O)NC(=O)[C@H](CC(C)C)NC(=O)[C@H](NC(C)=O)C(c1ccccc1)c1ccccc1)C(C)C)C(=O)N[C@@H](Cc1c[nH]c2ccccc12)C(=O)O [Example 81, Ac--D--Dip--Leu--Asp--Val--Ile--Trp] (Ac-[dDip]LDVIW-OH)	15	80	–	–
CC[C@H](C)[C@H](NC(=O)[C@H](CC(=O)O)NC(=O)[C@H](CC(C)C)NC(=O)[C@@H](Cc1ccccc1)NC(C)=O)C(=O)N[C@@H](C)C(=O)N[C@@H](Cc1c[nH]c2ccccc12)C(=O)O [Example 82, Ac--D--Phe--Leu--Asp--Ile--Ala--Trp] (Ac-[dF]LDIAW-OH)	8000	> 1000	–	–
CC[C@H](C)[C@H](NC(=O)[C@H](CC(=O)O)NC(=O)[C@H](CC(C)C)NC(=O)[C@H](NC(C)=O)C(c1ccccc1)c1ccccc1)C(=O)N[C@H](C(=O)N[C@@H](Cc1c[nH]c2ccccc12)C(=O)O)C(C)C [Example 86, Ac--D--Dip--Leu--Asp--Ile--Val--Trp] (Ac-[dDip]LDIVW-OH)	97	630	–	–
CC[C@H](C)[C@H](NC(=O)[C@H](CC(=O)O)NC(=O)[C@H](CC(C)C)NC(=O)[C@H](NC(C)=O)C(c1ccccc1)c1ccccc1)C(=O)N[C@H](C(=O)N[C@@H](Cc1ccc(O)cc1)C(=O)O)[C@@H](C)CC [Example 88, Ac--D--Dip--Leu--Asp--Ile--Ile--Tyr] (Ac-[dDip]LDIIY-OH)	3700	6300	–	–
CC[C@H](C)[C@H](NC(=O)[C@H](CC(=O)O)NC(=O)[C@H](CC(C)C)NC(=O)[C@@H](Cc1ccccc1)NC(C)=O)C(=O)N[C@H](C(=O)N[C@@H](Cc1ccc(O)cc1)C(=O)O)[C@@H](C)CC [Example 89, Ac--D--Phe--Leu--Asp--Ile--Ile--Tyr] (Ac-[dF]LDIIY-OH)	> 10000	220	–	–
CC[C@H](C)[C@H](NC(=O)[C@@H]1CCCN1C(=O)[C@H](CC(N)=O)NC(=O)[C@H](CC(C)C)NC(=O)[C@@H](Cc1ccccc1)NC(C)=O)C(=O)N[C@@H](Cc1c[nH]c2ccccc12)C(=O)O [Example 90, Ac--D--Phe--Leu--Asn--Pro--Ile--Trp] (Ac-[dF]LNPIW-OH)	1980	2800	–	–
CC[C@H](C)[C@H](NC(=O)[C@H](Cc1ccccc1)NC(=O)[C@H](CC(=O)O)NC(=O)[C@@H](Cc1ccccc1)NC(C)=O)C(=O)N[C@@H](Cc1c[nH]c2ccccc12)C(=O)O [Example 93, Ac--D--Phe--Asp--Phe--Ile--Trp] (Ac-[dF]DFIW-OH)	–	–	37.4	64.7
CC[C@H](C)[C@H](NC(=O)[C@H](CC(=O)O)NC(=O)[C@H](NC(C)=O)C(c1ccccc1)c1ccccc1)C(=O)N[C@H](C(=O)N[C@@H](Cc1c[nH]c2ccccc12)C(=O)O)[C@@H](C)CC [Example 94, Ac--D--Dip--Asp--Ile--Ile--Trp] (Ac-[dDip]DIIW-OH; C-terminus assumed)	> 1000	250	–	–
CC[C@H](C)[C@H](NC(=O)[C@H](Cc1ccc(O)cc1)NC(=O)[C@H](N)C(c1ccccc1)c1ccccc1)C(=O)N[C@H](C(=O)N[C@@H](Cc1c[nH]c2ccccc12)C(=O)O)[C@@H](C)CC [Example 95, D--Dip--Tyr--Ile--Ile--Trp] (H-[dDip]YIIW-OH)	8000	350	–	–

From patent US5773414A, “Endothelin antagonists” (Warner-Lambert Company, priority 1997, dated 1998)
